Measurements taken from US9839642B2, “Beta-tetrazolyl-propionic acids as metallo-beta-lactamase inhibitors” (priority 2014, dated 2017).
Where two headings read alike, the source gives them in different places.

Key:
[1] = test system: Serratia marcescens expressing IMP-1 (CL5741); assay: Antibiotic potentiation activity: synergistic concentration (MITC95) with imipenem, growth by OD600; format: cell-based
Outline: (§1)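 MITC95 = lowest inhibitor concentration giving 95% growth inhibition, read by absorbance after 22–24 h at 35° C. Compound range 200 μM to 0.195 μM, imipenem fixed at 1 or 4 μg/ml, bacteria in 1.1×CAMHB from saline suspension diluted 1:100.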

[2] = test system: Escherichia coli expressing NDM-1 (CLB30016); assay: as above; format: cell-based
Outline: as §1

[3] = test system: Klebsiella pneumoniae expressing VIM-1 (IHMA599644); assay: as above; format: cell-based
Outline: as §1

NDM-1 = NDM-1 (Klebsiella pneumoniae, UniProt C7C422); assay: Enzyme activity: determination of IC50, fluorescence assay with CCF2-FA substrate; format: biochemical; settings: CCF2-FA 1.25 μM, 2 hours at 25° C., read-out: NDM1 IC50
Outline: (§2)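 In pH 7 phosphate buffer (100 mM) with 10 μM ZnSO4 and 0.005% Tween-20, CCF2-FA substrate (1.25 μM final) was hydrolysed for 2 h at 25 °C by NDM-1, IMP-1 or VIM-1 at 1, 2 or 30 pM in the presence of inhibitor at 20–0.00063 μM. Emission 460 nm/excitation 405 nm; 4-parameter curve fit gave IC50.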

IMP-1 = IMP-1 (Serratia marcescens, UniProt P52699); assay: as above; format: biochemical; settings: CCF2-FA 1.25 μM, 2 hours at 25° C., read-out: IMP1 IC50
Outline: as §2

VIM-1 = VIM-1 (Pseudomonas aeruginosa, UniProt A0A0F7KYQ8); assay: as above; format: biochemical; settings: CCF2-FA 1.25 μM, 2 hours at 25° C., read-out: VIM1 IC50
Outline: as §2

[4] = S. marcescens CL5741 (IMP-1), 95% inhibition of growth
[5] = E. coli CLB30016 (NDM-1), 95% inhibition of growth
[6] = K. pneumoniae IHMA599644 (VIM-1), 95% inhibition of growth
[7] = 95% inhibition of bacterial growth, strain CL5741
[8] = 95% inhibition of bacterial growth, strain CLB30016
[9] = 95% inhibition of bacterial growth, strain IHMA599644

Chain of IMP-1 (P52699 19-246, looked up, species assumed): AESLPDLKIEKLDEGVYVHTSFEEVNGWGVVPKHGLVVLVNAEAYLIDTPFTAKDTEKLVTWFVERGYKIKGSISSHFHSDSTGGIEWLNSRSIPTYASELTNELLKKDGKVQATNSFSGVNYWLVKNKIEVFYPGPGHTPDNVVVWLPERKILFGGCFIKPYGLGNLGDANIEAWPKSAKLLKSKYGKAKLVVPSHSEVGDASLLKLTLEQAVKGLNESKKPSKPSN
Chain of NDM-1 (C7C422 29-270, looked up, species assumed): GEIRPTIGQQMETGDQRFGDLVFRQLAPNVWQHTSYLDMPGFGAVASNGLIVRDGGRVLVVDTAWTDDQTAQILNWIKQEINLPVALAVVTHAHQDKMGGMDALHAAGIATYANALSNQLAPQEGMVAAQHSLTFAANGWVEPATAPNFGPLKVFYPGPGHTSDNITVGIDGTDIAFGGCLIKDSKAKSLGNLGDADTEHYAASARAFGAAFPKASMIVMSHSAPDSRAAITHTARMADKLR

SMILES | IMP1 SM5741 MITC95 [1, 4] [µM] | NDM1 EC30016 MITC95 [2, 5] [µM] | VIM1 KP599644 MITC95 [3, 6] [µM] | IC50 (NDM-1; NDM-1 enzyme 1 pM) [nM] | IC50 (IMP-1; IMP-1 enzyme 2 pM) [nM] | IC50 (VIM-1; VIM-1 enzyme 30 pM) [nM] | IMP1 SM5741 MITC95 [1, 7] [µM] | NDM1 EC30016 MITC95 [2, 8] [µM] | VIM1 KP599644 MITC95 [3, 9] [µM] | IC50 (NDM-1; enzyme 1 pM) [nM] | IC50 (IMP-1; enzyme 2 pM) [nM] | IC50 (VIM-1; enzyme 30 pM) [nM]
Nc1ccc(C[C@H](c2nnn[nH]2)[C@H](CC(F)(F)F)C(=O)O)cn1 [Example 435, (S)-2-((S)-2-(6-aminopyridin-3-yl)-1-(1H-tetrazol-5-yl)ethyl)-4,4,4-trifluorobutanoic acid] | 50 | 0.7813 | 2.344 | 432 | 7740 | 13.6 |  |  |  |  |  | 
CCC[C@H](C(=O)O)[C@H](Cc1ccccc1-c1ccc(S(N)(=O)=O)cc1)c1nn[nH]n1 [Example 401, (2S)-2-[(1S)-2-(4′-sulfamoylbiphenyl-2-yl)-1-(2H-tetrazol-5-yl)ethyl]pentanoic acid] | 50 | 9.4 | 50 | 3.9 | 1900 | 13 |  |  |  |  |  | 
CC(C)(C)C(C(=O)O)[C@H](Cc1ccc(C2CCNC2)nc1)c1nnn[nH]1.O=C(O)C(F)(F)F (stereo partly drawn) [Example 430, 3-(5-((2S)-3-carboxy-4,4-dimethyl-2-(1H-tetrazol-5-yl)pentyl)pyridin-2-yl)pyrrolidin-1-ium 2,2,2-trifluoroacetate] | 25 | 12.5 | 25 | 620 | 544 | 52.6 |  |  |  |  |  | 
CCC[C@H](C(=O)O)[C@H](Cc1ccc(C(=O)NC)cc1)c1nnn[nH]1 [Example 279, (2S)-2-[(1S)-2-[4-(methylcarbamoyl)phenyl]-1-(1H-tetrazol-5-yl)ethyl]pentanoic acid] | >200 | 150 | >200 | 1000 | 9500 | 100 |  |  |  |  |  | 
CCC[C@H](C(=O)O)[C@H](Cc1ccc(-c2ccc(CC3CCNCC3)cc2)cc1)c1nn[nH]n1 [Example 301, (2S)-2-[(1S)-2-[4′-(piperidin-4-ylmethyl)biphenyl-4-yl]-1-(2H-tetrazol-5-yl)ethyl]pentanoic acid] | 2.3 | 12.5 | 100 | 43 | 68 | 31 |  |  |  |  |  | 
CCC[C@H](C(=O)O)[C@H](Cc1cccc(N(C)CCN(C)C)c1)c1nn[nH]n1 [Example 361, (2S)-2-[(1S)-2-(3-{[2-(dimethylamino)ethyl] (methyl)amino}phenyl)-1-(2H-tetrazol-5-yl)ethyl]pentanoic acid] | 150 | 38 | 25 | 390 | 8700 | 29 |  |  |  |  |  | 
CC(C)[C@H](C(=O)O)[C@H](Cc1ccc(C2=CCNC2)c(F)c1)c1nnn[nH]1 [Example 69, (2S,3S)-4-(4-(2,5-dihydro-1H-pyrrol-3-yl)-3-fluorophenyl)-2-isopropyl-3-(1H-tetrazol-5-yl)butanoic acid] |  |  |  |  |  |  | 6.2 | 3.1 | 6.2 | 25 | 770 | 1.3
CC(C)[C@H](C(=O)O)[C@H](Cc1ccc(-c2ccc(N)nc2)cc1)c1nnn[nH]1 [Example 73, (2S,3S)-4-(4-(6-aminopyridin-3-yl)phenyl)-2-isopropyl-3-(1H-tetrazol-5-yl)butanoic acid] |  |  |  |  |  |  | 1.2 | 18.8 | 37.5 | 4.4 | 40 | 7.1
CC(C)C[C@H](C(=O)O)[C@H](Cc1ccc(Oc2ccc(CN)cc2)nc1)c1nn[nH]n1 [Example 390, (2S)-2-[(1S)-2-{6-[4-(aminomethyl)phenoxy]pyridin-3-yl}-1-(2H-tetrazol-5-yl)ethyl]-4-methylpentanoic acid] | 12.5 | 1.6 | 25 | 35 | 240 | 5.3 |  |  |  |  |  | 
O=C(O)[C@@H](C1CCCC1)[C@H](Cc1ccc(C2=CCNC2)cn1)c1nnn[nH]1 [Example 66, (2S,3S)-2-cyclopentyl-4-(5-(2,5-dihydro-1H-pyrrol-3-yl)pyridin-2-yl)-3-(1H-tetrazol-5-yl)butanoic acid] |  |  |  |  |  |  | 75 | 4.7 | 12.5 | 370 | 6400 | 18
CC(C)(C)C(C(=O)O)[C@H](Cc1ccc(Br)s1)c1nnn[nH]1 (stereo partly drawn) [Example 426, (3S)-4-(5-bromothiophen-2-yl)-2-(tert-butyl)-3-(1H-tetrazol-5-yl)butanoic acid] | 2.344 | 12.5 | 150 | 142 | 27.9 | 49.5 |  |  |  |  |  | 
CC(C)[C@H](C(=O)O)[C@H](Cc1ccc(N2CCC[C@H]2CO)nc1)c1nnn[nH]1 [Example 126, (2S,3S)-4-(6-((S)-2-(hydroxymethyl)pyrrolidin-1-yl)pyridin-3-yl)-2-isopropyl-3-(1H-tetrazol-5-yl)butanoic acid] |  |  |  |  |  |  | 25 | 6.2 | 50 | 63 | 530 | 34
CCC[C@H](C(=O)O)[C@H](Cc1cnc(OC2CCNCC2)nc1)c1nnn[nH]1 [Example 289, (S)-2-((S)-2-(2-(piperidin-4-yloxy)pyrimidin-5-yl)-1-(1H-tetrazol-5-yl)ethyl)pentanoic acid] | >200 | 25 | 38 | 3100 | > 20000 | 6.8 |  |  |  |  |  | 
CC(C)C[C@H](C(=O)O)[C@H](Cc1ccc(N2CCC(CN)C2)nc1)c1nnn[nH]1 (stereo partly drawn) [Example 306, (2S)-2-[(1S)-2-{6-[3-(aminomethyl)pyrrolidin-1-yl]pyridin-3-yl}-1-(1H-tetrazol-5-yl)ethyl]-4-methylpentanoic acid] | 25 | 3.1 | 12.5 | 670 | 2700 | 13 |  |  |  |  |  | 
CCC[C@H](C(=O)O)[C@H](CCc1ccc(N)nc1)c1nnn[nH]1 [Example 405, (2S,3S)-5-(6-aminopyridin-3-yl)-2-propyl-3-(1H-tetrazol-5-yl)pentanoic acid] | 200 | 12.5 | 12.5 | 2830 | 14800 | 39.6 |  |  |  |  |  | 
CC(C)[C@H](C(=O)O)[C@H](Cc1ccc(N[C@@H]2CCNC2)nc1)c1nnn[nH]1 [Example 124, (2S,3S)-2-isopropyl-4-(6-((R)-pyrrolidin-3-ylamino)pyridin-3-yl)-3-(1H-tetrazol-5-yl)butanoic acid] |  |  |  |  |  |  | 100 | 4.7 | 50 | 540 | 15000 | 59
CCC[C@H](C(=O)O)[C@H](Cc1ccc(C)nc1)c1nnn[nH]1 [Example 85, (2S)-2-[(1S)-2-(6-methylpyridin-3-yl)-1-(1H-tetrazol-5-yl)ethyl]pentanoic acid] |  |  |  |  |  |  | 100 | 0.78 | 18.8 | 250 | 6500 | 6.2
CC(C)[C@H](C(=O)O)[C@H](Cc1ccccc1C1=CCNC1)c1nnn[nH]1 [Example 70, (2S,3S)-4-(2-(2,5-dihydro-1H-pyrrol-3-yl)phenyl)-2-isopropyl-3-(1H-tetrazol-5-yl)butanoic acid] |  |  |  |  |  |  | >200 | 12.5 | 50 | 180 | > 20000 | 240
O=C(O)[C@@H](CCCC1CCNCC1)[C@H](Cc1ccc(C2CCNC2)cc1)c1nnn[nH]1 (stereo partly drawn) [Example 434, (2S)-5-(piperidin-4-yl)-2-((1S)-2-(4-(pyrrolidin-3-yl)phenyl)-1-(1H-tetrazol-5-yl)ethyl)pentanoic acid 2,2,2-trifluoroacetate (1:2)] | 100 | 12.5 | 25 | 67.9 | 2000 | 16.6 |  |  |  |  |  | 
